Laboratory results taken from US20260097047A1, “Small molecule inhibitors of the ribosome biogenesis factor NVL2” (Board of Regents, The University of Texas System, priority 2023, published 2026).

What follows are compounds tested on HCT116 cells (assay: Cell viability assay (CellTiter-Glo, 72 hours) in HCT116 human colorectal cancer cells). Conditions: Homo sapiens, HCT-116; Table 1; HCT116, 72 hours; read-out: Activity.
Assay type: cell-based
Outline: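 2,000 cells/well adhered overnight, then compound added by digital dispenser with DMSO normalized to 0.5%. Viability read after 72 h at 37 °C by ATP-based CellTiter-Glo luminescence. IC50 from ten-point curves baseline-corrected to vehicle, five-parameter asymmetric least-squares fit.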

| IC50 [µM] | SMILES |
| --- | --- |
| < 0.5 | C#CCOCCN1C(=O)c2ccccc2Sc2cc(NC(=O)N3CCC3)ccc21 [N-(11-Oxo-10-(2-(prop-2-yn-1-yloxy)ethyl)-10,11-dihydrodibenzo[b,f][1,4]thiazepin-7-yl) azetidine-1-carboxamide] |

Same assay, conditions: Homo sapiens, HCT-116; Table 3; HCT116, 72 hours; read-out: Activity

| IC50 [µM] | SMILES |
| --- | --- |
| < 0.5 | C#CCOCCN1C(=O)c2ccccc2Sc2cc(NC(=O)Nc3ccccc3)ccc21 [Table 3: —(CH2)2OCH2CCH; Ph; CH/CH, 1-(11-Oxo-10-(2-(prop-2-yn-1-yloxy)ethyl)-10,11-dihydrodibenzo[b,f][1,4]thiazepin-7-yl)-3-phenylurea] |

Same assay, conditions: Homo sapiens, HCT-116; Table 5; HCT116, 72 hours; read-out: Activity

| IC50 [µM] | SMILES |
| --- | --- |
| < 0.5 | CC#CCN1C(=O)c2ccccc2Sc2cc(Nc3ccnnc3)ccc21 [10-(But-2-yn-1-yl)-7-(pyridazin-4-ylamino)dibenzo[b,f][1,4]thiazepin-11 (10H)-one] |
| < 0.5 | CCC/C=C/CN1C(=O)c2ccccc2Sc2cc(Nc3nccc4ccccc34)ccc21 [(E)-10-(Hex-2-en-1-yl)-7-(isoquinolin-1-ylamino)dibenzo[b,f][1,4]thiazepin-11 (10H)-one] |
| < 0.5 | CC#CCN1C(=O)c2ccccc2Sc2cc(Nc3ccccn3)ccc21 [10-(But-2-yn-1-yl)-7-(pyridin-2-ylamino)dibenzo[b,f][1,4]thiazepin-11 (10H)-one] |
| < 0.5 | CCC/C=C/CN1C(=O)c2ccccc2Sc2cc(Nc3cnccn3)ccc21 [(E)-10-(Hex-2-en-1-yl)-7-(pyrazin-2-ylamino)dibenzo[b,f][1,4]thiazepin-11 (10H)-one] |
| < 0.5 | CC#CCN1C(=O)c2ccccc2Sc2cc(Nc3ncnc(C#N)c3C)ccc21 [6-((10-(But-2-yn-1-yl)-11-oxo-10,11-dihydrodibenzo[b,f][1,4]thiazepin-7-yl)amino)-5-methylpyrimidine-4-carbonitrile] |

Same assay, conditions: Homo sapiens, HCT-116; Table 6; HCT116, 72 hours; read-out: Activity

| IC50 [µM] | SMILES |
| --- | --- |
| < 0.5 | CC#CCN1C(=O)c2ccccc2Sc2cc(NC3CC4(COC4)C3)ccc21 [7-((2-Oxaspiro[3.3]heptan-6-yl)amino)-10-(but-2-yn-1-yl)dibenzo[b,f][1,4]thiazepin-11 (10H)-one] |
| < 0.5 | CC#CCN1C(=O)c2ccccc2Sc2cc(NC3CCOC3)cnc21 (stereo not shown) [11-(But-2-yn-1-yl)-3-((tetrahydrofuran-3-yl)amino)benzo[f]pyrido[3,2-b][1,4]thiazepin-10(11H)-one] |

Same assay, conditions: Table 1; HCT116, 72 hours; read-out: Activity

| IC50 [µM] | SMILES |
| --- | --- |
| < 0.5 | CC#CCN1C(=O)c2ccccc2Sc2cc(NC(=O)N3CCCCC3)cnc21 [Table 1: —CH2CCMe; piperidin-1-yl; CH; N] |

Same assay, conditions: Table 4; HCT116, 72 hours; read-out: Activity

| IC50 [µM] | SMILES |
| --- | --- |
| < 0.5 | CC#CCN1C(=O)c2ccccc2Sc2cc(NC(=S)N[C@H]3C[C@@H](OC)C3)cnc21 [Table 4: —CH2CCMe; cis-3-MeOcBu; N] |

Same assay, conditions: Table 5; HCT116, 72 hours; read-out: Activity

| SMILES | IC50 [µM] |
| --- | --- |
| CC#CCN1C(=O)c2ccccc2Sc2cc(Nc3ncnc(C#N)c3C)cnc21 | < 0.5 |
| CC=CCN1C(=O)c2ccccc2Sc2cc(Nc3nccnc3C)cnc21 | < 0.5 |
| Cc1cnc(Nc2ccc3c(c2)Sc2ccccc2C(=O)N3CC#CCl)c(C)c1 | < 0.5 |
| CC=CCN1C(=O)c2ccccc2Sc2cc(Nc3ncccc3F)ccc21 | < 0.5 |
| C#CCN1C(=O)c2ccccc2Sc2cc(Nc3ncc(C)nc3C)cnc21 | < 0.5 |
| CC#CCN1C(=O)c2ccccc2Sc2cc(Nc3cccnn3)cnc21 | < 0.5 |
| CC=CCN1C(=O)c2ccccc2Sc2cc(Nc3ncccc3C#N)ccc21 | < 0.5 |
| CCCC=CCN1C(=O)c2ccccc2Sc2cc(Nc3ncccc3C#N)cnc21 | < 0.5 |
| O=C1c2ccccc2Sc2cc(Nc3cccnn3)ccc2N1CC#CCl | < 0.5 |

Further lines, results first:

| IC50 [µM] | SMILES |
| --- | --- |
| < 0.5 | CC#CCN1C(=O)c2ccccc2Sc2cc(Nc3nc(C#N)ccc3C)cnc21 |
| < 0.5 | C#CCN1C(=O)c2ccccc2Sc2cc(Nc3ncc(C)nc3C)ccc21 |
| < 0.5 | CC#CCN1C(=O)c2ccccc2Sc2cc(Nc3ncccc3OC)cnc21 |

Same assay, conditions: Table 6; HCT116, 72 hours; read-out: Activity

| IC50 [µM] | SMILES |
| --- | --- |
| < 0.5 | CC#CCN1C(=O)c2ccccc2Sc2cc(NC34CC(C3)C4)cnc21 |
| < 0.5 | CC#CCN1C(=O)c2ccccc2Sc2cc(NC34CC(C3)C4)ccc21 |

Same assay, conditions: Table 7; cell viability assay, CellTiter-Glo, 72 hours; scaffold drawing 42 with R^2, R^3, X/Y, Z; read-out: Activity

| SMILES | IC50 [µM] |
| --- | --- |
| COCCN1C(=O)c2ccccc2Sc2cc(NC(=O)c3cscn3)ccc21 [—(CH2)2OMe; thiazol-4-yl; CH/CH; S] | 1 to 5 |
| COCCN1C(=O)c2ccccc2Sc2cc(NC(=O)c3ccc(N=[N+]=[N-])cc3)ccc21 [—(CH2)2OMe; 4-N3Ph; CH/CH; S] | 1 to 5 |
| COCCN1C(=O)c2ccccc2Sc2cc(NC(=O)c3ccc(C)cc3)ccc21 [—(CH2)2OMe; 4-MePh; CH/CH; S] | 1 to 5 |
| CCCOc1ccc(C(=O)Nc2ccc3c(c2)Sc2ccccc2C(=O)N3CCOC)cc1 [—(CH2)2OMe; 4-PrOPh; CH/CH; S] | 1 to 5 |
| C#CCOCCN1C(=O)c2ccccc2Sc2cc(NC(=O)c3cccc(CCC#N)c3)ccc21 [—(CH2)2OCH2CCH; 3-(2′-CNEt)Ph; CH/CH; S] | < 0.5 |
| COCCN1C(=O)c2ccccc2Sc2cc(NC(=O)c3cocn3)ccc21 [—(CH2)2OMe; oxazol-4-yl; CH/CH; S] | 1 to 5 |

Continued, values first:

| IC50 [µM] | SMILES |
| --- | --- |
| 1 to 5 | CNC(=O)c1cccc(C(=O)Nc2ccc3c(c2)Sc2ccccc2C(=O)N3CCOC)c1 [—(CH2)2OMe; 3-MeNHC(O)Ph; CH/CH; S] |
| 1 to 5 | COCCN1C(=O)c2ccccc2Sc2cc(NC(=O)c3cccc(C(N)=O)c3)ccc21 [—(CH2)2OMe; 3-H2NC(O)Ph; CH/CH; S] |
| 1 to 5 | COCCN1C(=O)c2ccccc2Sc2cc(NC(=O)c3ccc(Cl)c(Cl)c3)ccc21 [—(CH2)2OMe; 3,4-Cl2Ph; CH/CH; S] |
| 1 to 5 | COCCN1C(=O)c2ccccc2Sc2cc(NC(=O)C3CC3)ccc21 [—(CH2)2OMe; cPr; CH/CH; S] |
| 0.5 to 1 | COCCN1C(=O)c2ccccc2Sc2cc(NC(=O)c3ccc4oc(=O)n(C)c4c3)ccc21 |

Same assay, conditions: Table 8; analogs of scaffold drawing 43 defined by R^2, R^3, X/Y, W; read-out: Activity (IC50 class, cell viability assay)

| SMILES | IC50 [µM] |
| --- | --- |
| CC#CCN1C(=O)c2ccc(Cl)cc2Sc2cc(NC(=O)C3CCCO3)cnc21 (stereo not shown) | < 0.5 |
| CC#CCN1C(=O)c2cc(F)ccc2Sc2cc(NC(=O)C34CC(O)(C3)C4)cnc21 | < 0.5 |
| CC#CCN1C(=O)c2ccc(Cl)cc2Sc2cc(NC(=O)C=CCO)cnc21 [—CH2CCMe; CH—═CHCH2OH; CCI/CH; N] | < 0.5 |
| CON=C1CC2(C1)CC(C(=O)Nc1cnc3c(c1)Sc1ccccc1C(=O)N3CC#CC1CC1)C2 (stereo not shown) | < 0.5 |
| COC12CC(C(=O)Nc3cnc4c(c3)Sc3ccccc3C(=O)N4CC#CC3CC3)(C1)C2 | < 0.5 |
| CC#CCN1C(=O)c2ccc(F)cc2Sc2cc(NC(=O)[C@@H]3C[C@H]3COC)cnc21 (relative stereo) [—CH2CCMe; trans-2-MeOCH2-cPr; CF/CH; N] | < 0.5 |
| CC#CCN1C(=O)c2ccccc2Sc2cc(NC(=O)C3CCCCC3)cnc21 [—CH2CCMe; cHex; CH/CH; N] | < 0.5 |
| CC#CCN1C(=O)c2cc(F)ccc2Sc2cc(NC(=O)C3CC4(CC(=NOC)C4)C3)ccc21 (stereo not shown) | < 0.5 |

Other lines, results leading:

| IC50 [µM] | SMILES |
| --- | --- |
| < 0.5 | C#CCN1C(=O)c2ccc(Cl)cc2Sc2cc(NC(=O)C3CC4(CC(=NOC)C4)C3)cnc21 (stereo not shown) |
| 0.5 to 1 | CC#CCN1C(=O)c2ccccc2Sc2cc(NC(=O)C#CCOC)ccc21 [—CH2CCMe; CCCH2OMe; CH/CH; CH] |
| < 0.5 | CC#CCN1C(=O)c2cc(F)ccc2Sc2cc(NC(=O)c3ccc(OC)cc3)ccc21 [—CH2CCMe; 4-MeOPh; CH/CF; CH] |
| < 0.5 | CC#CCN1C(=O)c2ccc(F)cc2Sc2cc(NC(=O)C3CC4(CC(=NO)C4)C3)cnc21 (stereo not shown) |
| 0.5 to 1 | CC#CCN1C(=O)c2ccccc2Sc2cc(NC(=O)C3CCNC3=O)ccc21 (stereo not shown) |
| < 0.5 | CC#CCN1C(=O)c2ccccc2Sc2cc(NC(=O)C3CC4(CC(=NO)C4)C3)ccc21 (stereo not shown) |
| < 0.5 | CC#CCN1C(=O)c2ccc(F)cc2Sc2cc(NC(=O)CC3COC3)ccc21 [—CH2CCMe; (oxetan-3-yl)CH2; CF/CH; CH] |
| < 0.5 | CC#CCN1C(=O)c2ccc(Cl)cc2Sc2cc(NC(=O)C=CCO)ccc21 [—CH2CCMe; CH═CHCH2OH; CCI/CH; CH] |
| < 0.5 | O=C(Nc1ccc2c(c1)Sc1cc(Cl)ccc1C(=O)N2CC#CCl)C1CC2(CC(=NO)C2)C1 (stereo not shown) |
| < 0.5 | CC#CCN1C(=O)c2ccc(C#N)cc2Sc2cc(NC(=O)C=CCOC)ccc21 [—CH2CCMe; CH—═CHCH2OMe; CCN/CH; CH] |

Same assay, conditions: Table 9; HCT116, 72 hours; read-out: Activity

| SMILES | IC50 [µM] |
| --- | --- |
| COC1CC(C(=O)Nc2ccc3c(c2)C(C)c2ccccc2C(=O)N3CC#CC2CC2)C1 (stereo not shown) | < 0.5 |
| COc1ccc(C(=O)Nc2ccc3c(c2)C(C)(O)c2ccccc2C(=O)N3CC#CCl)cc1 (stereo not shown) [Table 9: —CH2CCCl; 4-MeOPh; CMeOH] | < 0.5 |
| COC12CC(C(=O)Nc3ccc4c(c3)C(C#N)c3ccccc3C(=O)N4CC#CCF)(C1)C2 (stereo not shown) | < 0.5 |

The next lines start with the values.

| IC50 [µM] | SMILES |
| --- | --- |
| < 0.5 | CO[C@H]1C[C@@H](C(=O)Nc2ccc3c(c2)C(C)(O)c2ccccc2C(=O)N3CC#CCl)C1 (stereo partly drawn) [Table 9: —CH2CCCl; cis-3-MeOcBu; CMeOH] |
| < 0.5 | COCC1CC(C(=O)Nc2ccc3c(c2)C(C#N)c2ccccc2C(=O)N3CC#CCF)C1 (stereo not shown) [Table 9: —CH2CCCH2F; 3-MeOCH2-cBu; CHCN] |
| < 0.5 | CC1c2ccccc2C(=O)N(CC#CC2CC2)c2ccc(NC(=O)C3CC4(COC4)C3)cc21 (stereo not shown) |
| < 0.5 | CC#CCN1C(=O)c2ccccc2C(C)c2cc(NC(=O)C=CCO)ccc21 (stereo not shown) [Table 9: —CH2CCMe; CH═CHCH2OH; CHMe] |
| < 0.5 | CO[C@H]1C[C@H](C(=O)Nc2ccc3c(c2)C(C)(O)c2ccccc2C(=O)N3CC#CCl)C1 (stereo partly drawn) [Table 9: —CH2CCCl; trans-3-MeOcBu; CMeOH] |
| < 0.5 | CC#CCN1C(=O)c2ccccc2C(C)c2cc(NC(=O)C3CC4(CC(=O)C4)C3)ccc21 (stereo not shown) |

Same assay, conditions: cell viability assay; Table 10 analogs of scaffold drawing 45 defined by R2, R3, X/Y, W; read-out: Activity

| IC50 [µM] | SMILES |
| --- | --- |
| < 0.5 | COCC1CC(C(=O)Nc2cnc3c(c2)Sc2ccccc2C(=O)N3CC#CC2CC2)C1 (stereo not shown) [—CH2CCcPr; 3-MeOCH2-cBu; CH/CH; N] |
